Results taken from patent US20220389007A1, “INHIBITORS OF HUMAN IMMUNODEFICIENCY VIRUS REPLICATION” (VIIV HEALTHCARE UK (No. 5) LIMITED, priority 2019, published 2022).
pEC50: −log10 of the molar value. Where two headings read alike, the source gives them in different places.

Legend:
Assay type in all cases: cell-based
[1] = system: recombinant NL4-3 virus; test: HIV cell culture assay (antiviral activity, luciferase readout)
Outline: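 MT-2 cells infected for 4-5 days with NL4-3 reference virus carrying Renilla luciferase in place of part of nef, in presence of serial compound dilutions. Luciferase read with live-cell substrate; EC50 from median effect equation fit.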

[2] = system: uninfected MT2 cells; test: Compound cytotoxicity, XTT-based colorimetric assay; details: day 4, XTT assay
Outline: (§1)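 Run under the antiviral-assay protocol but without virus. Viability was read on day 4 and CC50 values were derived from the readout.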

[3] = as above; details: human; uninfected MT2 cells, day 4, XTT assay
Outline: as §1

[4] = MT-2 cells infected for 4-5 days with recombinant NL4-3 virus carrying Renilla luciferase, read-out: EC50
[5] = Human immunodeficiency virus 1, NL43, MT2, MT-2 cells infected for 4-5 days with recombinant NL4-3 virus carrying Renilla luciferase

Row | Compound | pEC50 [1, 4] | CC50 [2] [nM] | pEC50 [1, 5] | CC50 at 4 day [3] [nM]
1 | Cn1nc(NS(C)(=O)=O)c2c(Cl)ccc(-n3c([C@H](Cc4cc(F)cc(F)c4)NC(=O)Cn4nc(C(F)F)c5c4C(F)(F)[C@@H]4C[C@H]54)nc4nc(-c5cnc(C(C)(C)O)s5)ccc4c3=O)c21 [Example 92, N-((S)-1-((3P)-3-(4-chloro-1-methyl-3-(methylsulfonamido)-1H-indazol-7-yl)-7-(2-(2-hydroxypropan-2-yl)thiazol-5-yl)-4-oxo-3,4-dihydropyrido[2,3-d]pyrimidin-2-yl)-2-(3,5-difluorophenyl)ethyl)-2-((3bS,4aR)-3-(difluoromethyl)-5,5-difluoro-3b,4,4a,5-tetrahydro-1H-cyclopropa[3,4]cyclopenta[1,2-c]pyrazol-1-yl)acetamide] | 10.19 | > 100 |  | 
2 | Cn1nc(NS(C)(=O)=O)c2c(Cl)ccc(-n3c([C@H](Cc4cc(F)cc(F)c4)NC(=O)Cn4nc(C(F)F)c5c4C(F)(F)[C@@H]4C[C@H]54)nc4nc(-c5csc(S(C)(=O)=O)n5)ccc4c3=O)c21 [Example 93, N-((S)-1-((3P)-3-(4-chloro-1-methyl-3-(methylsulfonamido)-1H-indazol-7-yl)-7-(2-(methylsulfonyl)thiazol-4-yl)-4-oxo-3,4-dihydropyrido[2,3-d]pyrimidin-2-yl)-2-(3,5-difluorophenyl)ethyl)-2-((3bS,4aR)-3-(difluoromethyl)-5,5-difluoro-3b,4,4a,5-tetrahydro-1H-cyclopropa[3,4]cyclopenta[1,2-c]pyrazol-1-yl)acetamide] | 10.25 | > 100 |  | 
3 | Cn1nc(NS(C)(=O)=O)c2c(Cl)ccc(-n3c([C@H](Cc4cc(F)cc(F)c4)NC(=O)Cn4nc(C(F)F)c5c4C(F)(F)[C@@H]4C[C@H]54)nc4nc(-c5cc(C(F)(F)F)nn5CC(C)(F)F)ccc4c3=O)c21 [Example 95, N-((S)-1-((3P)-3-(4-chloro-1-methyl-3-(methylsulfonamido)-1H-indazol-7-yl)-7-(1-(2,2-difluoropropyl)-3-(trifluoromethyl)-1H-pyrazol-5-yl)-4-oxo-3,4-dihydropyrido[2,3-d]pyrimidin-2-yl)-2-(3,5-difluorophenyl)ethyl)-2-((3bS,4aR)-3-(difluoromethyl)-5,5-difluoro-3b,4,4a,5-tetrahydro-1H-cyclopropa[3,4]cyclopenta[1,2-c]pyrazol-1-yl)acetamide] | 9.60 | > 100 |  | 
4 | Cn1nc(NS(C)(=O)=O)c2c(Cl)ccc(-n3c([C@H](Cc4cc(F)cc(F)c4)NC(=O)Cn4nc(C(F)F)c5c4C(F)(F)[C@@H]4C[C@H]54)nc4nc(-c5cc(C(F)(F)F)cc(C(F)(F)F)n5)ccc4c3=O)c21 (atropisomer, axis not shown; (P)) [Example 14, N-((S)-1-(7-(4,6-bis(trifluoromethyl)pyridin-2-yl)-(3P)-3-(4-chloro-1-methyl-3-(methylsulfonamido)-1H-indazol-7-yl)-4-oxo-3,4-dihydropyrido[2,3-d]pyrimidin-2-yl)-2-(3,5-difluorophenyl)ethyl)-2-((3bS,4aR)-3-(difluoromethyl)-5,5-difluoro-3b,4,4a,5-tetrahydro-1H-cyclopropa[3,4]cyclopenta[1,2-c]pyrazol-1-yl)acetamide] |  |  | 9.55 | > 100
5 | Cn1nc(NS(C)(=O)=O)c2c(Cl)ccc(-n3c([C@H](Cc4cc(F)cc(F)c4)NC(=O)Cn4nc(C(F)F)c5c4C(F)(F)[C@@H]4C[C@H]54)nc4ncc(-c5nccc(C(F)F)n5)cc4c3=O)c21 (atropisomer, axis not shown; (P)) [Example 2, N-((S)-1-((3P)-3-(4-chloro-1-methyl-3-(methylsulfonamido)-1H-indazol-7-yl)-6-(4-(difluoromethyl)pyrimidin-2-yl)-4-oxo-3,4-dihydropyrido[2,3-d]pyrimidin-2-yl)-2-(3,5-difluorophenyl)ethyl)-2-((3bS,4aR)-3-(difluoromethyl)-5,5-difluoro-3b,4,4a,5-tetrahydro-1H-cyclopropa[3,4]cyclopenta[1,2-c]pyrazol-1-yl)acetamide] |  |  | 10.51 | > 100
6 | Cn1nc(NS(C)(=O)=O)c2c(Cl)ccc(-n3c([C@H](Cc4cc(F)cc(F)c4)NC(=O)Cn4nc(C(F)F)c5c4C(F)(F)[C@@H]4C[C@H]54)nc4nc(-c5cccc(OC(F)F)c5)ccc4c3=O)c21 (atropisomer, axis not shown; (P)) [Example 20, N-((S)-1-((3P)-3-(4-chloro-1-methyl-3-(methylsulfonamido)-1H-indazol-7-yl)-7-(3-(difluoromethoxy)phenyl)-4-oxo-3,4-dihydropyrido[2,3-d]pyrimidin-2-yl)-2-(3,5-difluorophenyl)ethyl)-2-((3bS,4aR)-3-(difluoromethyl)-5,5-difluoro-3b,4,4a,5-tetrahydro-1H-cyclopropa[3,4]cyclopenta[1,2-c]pyrazol-1-yl)acetamide] |  |  | 9.70 | > 100
7 | Cn1nc(NS(C)(=O)=O)c2c(Cl)ccc(-n3c([C@H](Cc4cc(F)cc(F)c4)NC(=O)Cn4nc(C(F)F)c5c4C(F)(F)[C@@H]4C[C@H]54)nc4nc(-c5ncccn5)ccc4c3=O)c21 (atropisomer, axis not shown; (P)) [Example 47, N-((S)-1-((3P)-3-(4-chloro-1-methyl-3-(methylsulfonamido)-1H-indazol-7-yl)-4-oxo-7-(pyrimidin-2-yl)-3,4-dihydropyrido[2,3-d]pyrimidin-2-yl)-2-(3,5-difluorophenyl)ethyl)-2-((3bS,4aR)-3-(difluoromethyl)-5,5-difluoro-3b,4,4a,5-tetrahydro-1H-cyclopropa[3,4]cyclopenta[1,2-c]pyrazol-1-yl)acetamide] |  |  | 10.17 | > 100
